According to patent US10028960B2, “Pyrimidine compounds as JAK kinase inhibitors” (THERAVANCE BIOPHARMA R&D IP, LLC, priority 2016, dated 2018):
Like-named read-outs stand apart in the source and are kept apart here.

How the values were obtained:
JAK1 = JAK1 (Homo sapiens (Human), UniProt P23458); assay: LanthaScreen JAK biochemical assay, JAK1
Protocol: (§1) A panel of four LanthaScreen JAK biochemical assays (JAK1, 2, 3 and Tyk2) were carried in a common kinase reaction buffer (50 mM HEPES, pH 7.5, 0.01% Brij-35, 10 mM MgCl2, and 1 mM EGTA). Recombinant GST-tagged JAK enzymes and a GFP-tagged STAT1 peptide substrate were obtained from Life Technologies.

[1] = tested on: IL-13 induced STAT6 phosphorylation in HT-29 human colorectal adenocarcinoma cells; assay: Cellular JAK potency assay: inhibition of IL-13 induced STAT6 phosphorylation; type: cell-based; details: Homo sapiens
JAK3 = JAK3 (Homo sapiens (Human), UniProt P52333); assay: LanthaScreen JAK biochemical assay, JAK3; details: read-out: JAK 3 (pKi) (converted)
Chain of JAK3 (P52333 whole entry): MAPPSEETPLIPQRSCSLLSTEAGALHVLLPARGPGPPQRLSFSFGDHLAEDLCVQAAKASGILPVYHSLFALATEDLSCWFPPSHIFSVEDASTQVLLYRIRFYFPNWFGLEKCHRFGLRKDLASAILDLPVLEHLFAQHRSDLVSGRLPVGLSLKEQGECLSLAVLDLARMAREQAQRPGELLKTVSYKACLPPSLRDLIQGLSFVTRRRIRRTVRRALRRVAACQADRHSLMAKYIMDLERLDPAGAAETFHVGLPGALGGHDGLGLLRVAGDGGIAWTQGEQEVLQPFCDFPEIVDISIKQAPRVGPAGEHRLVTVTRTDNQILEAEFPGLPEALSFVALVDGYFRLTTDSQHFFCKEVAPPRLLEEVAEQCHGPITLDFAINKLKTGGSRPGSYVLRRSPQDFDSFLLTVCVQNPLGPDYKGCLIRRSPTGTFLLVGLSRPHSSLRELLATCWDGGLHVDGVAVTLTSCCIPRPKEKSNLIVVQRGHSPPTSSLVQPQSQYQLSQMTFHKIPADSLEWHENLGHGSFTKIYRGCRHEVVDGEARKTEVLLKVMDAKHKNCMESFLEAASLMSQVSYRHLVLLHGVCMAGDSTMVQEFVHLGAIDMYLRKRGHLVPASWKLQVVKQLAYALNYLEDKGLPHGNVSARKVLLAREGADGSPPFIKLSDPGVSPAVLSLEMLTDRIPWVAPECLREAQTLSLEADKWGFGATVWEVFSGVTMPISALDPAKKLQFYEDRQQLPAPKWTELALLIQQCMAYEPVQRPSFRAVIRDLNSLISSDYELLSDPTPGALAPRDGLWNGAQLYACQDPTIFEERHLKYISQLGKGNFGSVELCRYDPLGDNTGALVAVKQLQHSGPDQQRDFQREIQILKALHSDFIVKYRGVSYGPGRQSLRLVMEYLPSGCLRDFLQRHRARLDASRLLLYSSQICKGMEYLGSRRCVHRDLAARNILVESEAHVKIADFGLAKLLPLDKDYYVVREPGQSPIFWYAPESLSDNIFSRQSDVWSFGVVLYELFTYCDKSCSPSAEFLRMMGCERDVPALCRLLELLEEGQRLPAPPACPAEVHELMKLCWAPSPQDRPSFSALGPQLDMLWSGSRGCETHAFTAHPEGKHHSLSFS
Protocol: as §1

[2] = Determination of absorption in cannulated rats; type: in vivo, Sprague Dawley rats; details: rat
Protocol: Oral bioavailability (F %), fraction absorbed (Fa %) and fraction escaping hepatic clearance (Fh %) were determined in Sprague Dawley rats from the following two studies:
(1) Pharmacokinetics in rats following an IV dose of test compound: Following IV dosing, plasma samples were typically collected from 0-6 hr. Drug levels were determined using an LC-MS-MS method. The resulting drug levels were used to compute the IV pharmacokinetic parameters: AUC IV and Dose IV.
(2) Rats that have been cannulated in their portal vein (PV) and also in their jugular vein (JV) were dosed orally with test compound. Following oral dosing, plasma samples were typically collected from 0-6 hr from both the portal vein and the jugular vein. Drug levels were determined using an LC-MS-MS method. The resulting drug levels were used to compute the following pharmacokinetic parameters: AUC PO PV, AUC PO JV, and Dose PO.
Using data derived from the above studies, the oral bioavailability F %, and the quantities Fa % and Fh % were calculated from the following formulas: F %=(AUC PO JV/AUC IV)*(Dose IV/Dose PO)*100 Fa %=(AUC PO PV/AUC IV)*(Dose IV/Dose PO)*100 Fh %=AUC PO JV/AUC PO PV
AUC PO JV=Area under the curve following oral dose and plasma collected from the jugular vein
AUC PO PV=Area under the curve following oral dose and plasma collected from the portal vein
AUC IV=Area under the curve following an intravenous dose
Dose IV=Intravenous Dose in mg/kg
Dose PO=Oral Dose in mg/kg

[3] = Colon pharmacokinetics in rats; details: Sprague Dawley, rat, colon and plasma, po, 5 mg/kg
Protocol: The test compound was formulated in 0.5% methyl-cellulose in water and dosed via oral gavage at 3.2 mg/kg and 100 mg/kg to Sprague Dawley rats. At various time points (typically 0.5, 1, 3, 6, 24 hr) post dosing, blood samples were removed via cardiac puncture and intact colons were excised from the rats. Blood samples were centrifuged at 1500×g for 15 min to collect plasma. Colons were washed with ice cold phosphate buffered saline (PBS), weighed, and homogenized at a dilution of 1:10 in PBS. Plasma and colon levels of test compound were determined by LC-MS analysis against analytical standards constructed into a standard curve in the test matrix. A colon to plasma ratio was determined as the ratio of the colon AUC to the plasma AUC in μg hr/g.

[4] = tested on: oxazolone-induced colitis; assay: Mouse model of oxazolone-induced colitis; type: in vivo, BALB/C mice
Protocol: Oxazolone-induced colitis is an experimental model that has a histological resemblance to human ulcerative colitis (Heller et al. […], 2002, 17, 629-638). Adult BALB/C mice from Harlan were used in the assay. On day 1, animals were lightly anesthetized with isoflurane and the hairs between the shoulder were carefully removed before oxazolone (4%, 150 μL, 4:1 acetone: olive oil formulation) or vehicle solution was slowly applied for skin sensitization. Seven days after skin sensitization, the mice were fasted overnight, anesthetized with isoflurane inhalation, and a 1 mL syringe equipped with a 3.5-F catheter, filled with oxazolone solution, was inserted carefully about 4 cm into the colon of the mouse. Following insertion, 50 μL of the oxazolone solution (1%, 1:1 ethanol:water formulation) was injected very slowly (over 30 sec using an injection pump) into the colon. The catheter was removed and the mice were held vertically (head down) for 2 min to ensure that the entire oxazolone solution remained inside the colon. Drug treatment (PO, BID or TID) or vehicle was initiated a day prior to the oxazolone intrarectal (IR) challenge. Two-day post oxazolone intrarectal challenge, the Disease Activity Index (DAI) was assessed by treatment-blinded experimenters for each mouse according to the criteria score: stool consistency score (0, normal; 2, loose; 4, diarrhea), gross bleeding score (0, absence; 2, blood tinged; 4, presence), and weight loss score (0, none; 1, 1%-5%; 2, 5%-10%; 3, 10%-20%; 4, more than 20%); DAI=average of (stool consistency score+gross bleeding score+weight loss score).
Selected compounds of the invention were tested in the assay. Efficacy in the model is evidenced by a decrease in DAI score as compared with the score from vehicle treated animals.

Chain of JAK1 (P23458 whole entry): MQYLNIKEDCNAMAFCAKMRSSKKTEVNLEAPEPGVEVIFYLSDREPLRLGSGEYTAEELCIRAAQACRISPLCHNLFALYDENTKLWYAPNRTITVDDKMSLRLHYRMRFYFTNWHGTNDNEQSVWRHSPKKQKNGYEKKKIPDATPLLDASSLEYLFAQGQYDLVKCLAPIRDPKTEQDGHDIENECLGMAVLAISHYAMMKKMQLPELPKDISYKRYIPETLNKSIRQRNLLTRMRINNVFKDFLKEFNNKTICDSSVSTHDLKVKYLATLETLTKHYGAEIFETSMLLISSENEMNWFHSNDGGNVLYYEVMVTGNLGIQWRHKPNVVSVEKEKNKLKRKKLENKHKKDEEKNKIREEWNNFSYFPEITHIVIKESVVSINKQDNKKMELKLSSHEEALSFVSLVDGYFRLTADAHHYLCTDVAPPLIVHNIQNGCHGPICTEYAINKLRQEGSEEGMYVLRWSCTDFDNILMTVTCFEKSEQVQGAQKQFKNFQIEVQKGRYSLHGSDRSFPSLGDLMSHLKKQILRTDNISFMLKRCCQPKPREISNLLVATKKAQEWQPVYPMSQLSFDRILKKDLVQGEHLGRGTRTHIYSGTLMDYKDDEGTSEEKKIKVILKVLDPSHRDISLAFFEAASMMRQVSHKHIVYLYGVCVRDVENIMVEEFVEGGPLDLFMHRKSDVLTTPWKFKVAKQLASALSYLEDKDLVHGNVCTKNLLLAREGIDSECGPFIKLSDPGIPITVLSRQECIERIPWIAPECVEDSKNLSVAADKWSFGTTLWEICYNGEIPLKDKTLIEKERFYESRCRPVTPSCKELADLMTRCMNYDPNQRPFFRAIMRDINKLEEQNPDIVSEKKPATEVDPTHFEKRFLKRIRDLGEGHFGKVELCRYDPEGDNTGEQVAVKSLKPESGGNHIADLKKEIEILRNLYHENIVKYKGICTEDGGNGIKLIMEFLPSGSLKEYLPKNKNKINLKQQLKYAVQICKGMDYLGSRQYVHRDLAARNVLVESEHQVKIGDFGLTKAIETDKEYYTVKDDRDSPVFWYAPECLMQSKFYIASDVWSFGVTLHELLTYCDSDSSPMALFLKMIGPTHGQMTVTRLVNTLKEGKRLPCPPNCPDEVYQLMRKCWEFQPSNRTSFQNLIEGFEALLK

COc1cc(Nc2cc(CO)[nH]n2)nc(N(C)[C@@H]2C[C@H]3CCC[C@@H](C2)N3S(=O)(=O)N2CC(C#N)C2)n1 [Example 2, 1-(((1R,3s,5S)-3-((4-((5-(Hydroxymethyl)-1H-pyrazol-3-yl)amino)-6-methoxypyrimidin-2-yl)(methyl)amino)-9-azabicyclo[3.3.1]nonan-9-yl)sulfonyl)azetidine-3-carbonitrile]
JAK 1 (pKi) (JAK1): A (A represents a pKi value≥10 (Ki≤0.1 nM)) | IC50 ([1]; HT-29, cellular assay, Assay 2, read-out: IC50 for inhibition of IL-13): ≤ 50 nM | IC50 ([1]; IL-13 induced STAT6 phosphorylation, HT-29 cells, read-out: HT-29 (pIC50) (converted)): 31.6 to 200 nM | Ki (JAK3): 0.1 to 1 nM | bioavailability ([2]; Sprague Dawley, plasma (jugular vein), oral vs IV, read-out: oral bioavailability (F %)): < 5% | absorption at the portal vein (Fa %) ([2]; oral, portal vein): less than 25% | Kp [3]: > 250 | activity in the oxazolone-induced colitis model ([4]; mice): demonstrated activity | minimal dose that caused a significant anti-colitic effect ([4]; mouse, PO BID): 1 mg/kg | decrease in DAI score as compared with vehicle treated animals ([4]; mouse, PO, 1, 3, and/or 10 mg/kg BID): statistically significant decrease
